Source: patent US20260055083A1, “APOL1 INHIBITORS AND METHODS OF USE” (Maze Therapeutics, Inc., priority 2022, published 2026)

Key:
APOL1 G2 [1] = target: T1, APOL1 G2 (Homo sapiens, UniProt O14791, DEL388-389); assay: APOL1 G2 FLIPR calcium influx assay (HEK T-REx/GCaMP6f/APOL1 G2 K6.3 cells); type: cell-based; conditions: HEK293 clone expressing GCaMP6f, doxycycline-induced APOL1 G2; prevention of calcium influx; geometric mean of at least 2 assay runs
T1 construct: expressed in transfected cells; host or cells: HEK293/T-REx APOL1 G2 clone #2, doxycycline-inducible
T1 sequence (O14791 with tags, fused parts or gaps DEL388-389): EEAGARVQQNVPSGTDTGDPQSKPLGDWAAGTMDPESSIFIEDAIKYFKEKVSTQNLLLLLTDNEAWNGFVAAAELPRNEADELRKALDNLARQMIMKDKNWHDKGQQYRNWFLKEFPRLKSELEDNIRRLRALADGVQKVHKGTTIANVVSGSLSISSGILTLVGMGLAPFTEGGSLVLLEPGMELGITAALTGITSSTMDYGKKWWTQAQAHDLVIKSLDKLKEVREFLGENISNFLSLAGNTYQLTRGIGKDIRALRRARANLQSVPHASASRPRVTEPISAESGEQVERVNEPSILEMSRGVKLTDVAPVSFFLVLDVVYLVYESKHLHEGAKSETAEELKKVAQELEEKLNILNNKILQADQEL
Description: A HEK293 clonal cell line was generated to stably express GCaMP6f, a genetically encoded calcium indicator, and inducibly express APOL1 G2 (HEK T-REx/GCaMP6f/APOL1 G2 K6.3). Cells were maintained in the following standard complete medium: DMEM with 4.5 g/L glucose and sodium pyruvate (BioWhittaker, Lonza, BE12-614F), supplemented with 10% FBS Performance Plus (Gibco, 16000044), 1% penicillin-streptomycin (BioWhittaker, DE17-602E), 2 mM ultraglutamine-1 (BioWhittaker cat. BE 17-605/U1), 50 μg/mL Zeocin (InvivoGen, ant-zn), 2.5 μg/mL Blasticidin (InvivoGen, ant-bl-5), and 25 μg/mL Hygromycin (InvivoGen, ant-hg). Standard propagation conditions consisted of plating 9×10^6, 4×10^6, 2×10^6 cells in a T225 flasks to be processed after 2, 3, or 4 days, respectively.
A source plate was generated containing 20 serially diluted compounds in DMSO (duplicate 8-point dose response). Next, 0.8 μL of compounds were transferred from the source plate to a destination plate prefilled with 79.2 μL of Ca^2+ free Tyrode's buffer (130 mM NaCl, 5 mM KCl, 1 mM MgCl2, 5 mM NaHCO3, 20 mM HEPES at pH 7.4). The destination plate was placed on a plate shaker (5 seconds at 2000 rpm) to mix. […] All transfer and mixing steps were conducted with an CyBi®-Well dispenser.
Cells were split by gently washing with DPBS (Euroclone, ECB4004L), followed by a 5-minute incubation (humidified, 37° C. with 5% CO2) with trypsin-EDTA solution (Euroclone, ECB3052D). Detached cells were diluted with standard complete medium without selective agents, counted, and plated in a 384 MTP microplate (GR4332CPL, Twin Helix) (10,000 cells/well in 25 μl/well) using a MATRIX WellMate dispenser. Plates were placed into a humidified incubator (37° C. with 5% CO2) overnight. The following day, 20 μL of doxycycline (Sigma, D9891) at 20 ng/mL in standard complete medium was added to cells with a CyBi®Drop dispenser to induce APOL1 G2 expression. After a 6-hour incubation (humidified, 37° C. with 5% CO2), cells were washed 3 times with Ca^2+ free Tyrode's Buffer (130 mM NaCl, 5 mM KCl, 1 mM MgCl2, 5 mM NaHCO3, 20 mM HEPES at pH 7.4) using a BIOTEK Microplate washer, such that 10 μL of buffer remained in each well after the final wash. Assay plates were then stored at room temperature for 10 minutes. Next, 10 μL of diluted compounds were transferred to the assay plate from the 2× compound plate using a CyBi®-Well dispenser. Compound incubation was then carried out at room temperature for 10 minutes. The assay plate was transferred to the […] and 20 μL of 10 mM Ca^2+ (final concentration=5 mM) Tyrode's buffer was injected.
Table B1 below summarizes the data from this experiment. Unless otherwise specified, AC50 and values are reported as the geometric mean of at least 2 assay runs on separate days. Each run represents the average of a technical replicate, where each compound was assayed twice in the same plate. A superscript t symbol indicates a value from the average of a technical replicate from a single assay run, where each compound was assayed twice in the same plate.
The AC50 values in Table B1 below reflect the compound's ability to prevent calcium influx by inhibiting APOL1. […] Compounds in Table B1 are referred to by the corresponding Compound Number in Table 1, which is also referred to in the synthetic examples. When one or more of the numbered compounds are identified by stereochemistry (for example, (R)- or (S)-), the specific stereoisomer for which data is provided in Table B1 may be identified by the elution order of such compound as described in the synthetic examples. To illustrate, Compound 2 is the first-eluting enantiomer of step 4 of Example 1 and Compound 3 is the second-eluting enantiomer of step 4 of Example 1. Further, by way of illustration, Compound 27 is the first-eluting enantiomeric mixture in step 4 of Example 7 and Compound 28 is the second-eluting enantiomeric mixture in step 4 of Example 7. […]

APOL1 G2 [2] = target: T1, APOL1 G2; assay: APOL1 G2 HEK293 rescue of cell death caused by overexpression of APOL1 (CellTiter-Glo); type: cell-based; conditions: HEK293/T-REx APOL1 G2 clone #2, doxycycline induction, 17 hours, CellTiter-Glo luminescence; reversal of cell death; geometric mean of at least 2 assay runs
Description: A HEK293 clonal cell line overexpressing APOL1 G2 (HEK293/T-REx APOL1 G2/clone #2) was maintained in 1×DMEM-GlutaMax (Gibco, 10569-010) media with 10% tetracycline-free FBS (Takara Bio USA, 631101), 5 μg/mL Blasticidin (Gibco, A1113903), and 100 μg/mL Zeocin (Invitrogen, R25001) in T75 flasks. In preparation for the assay, this media was aspirated and 2 mL of prewarmed TrypLE Express (Gibco, 12605-010) was added to a flask to detach cells. The flask was then incubated (humidified, 37° C. with 5% CO2) for 3-5 minutes. Afterwards, 8 mL of prewarmed cell assay media (1×DMEM-GlutaMax media with 10% tetracycline-free FBS) was added to the trypsinized cells. The suspension was gently mixed, and cells were counted using a Countess Cell Counting Chamber (Invitrogen). The suspension was diluted using cell assay media to generate a working stock solution (166,667 cells/mL). Using a MultiDrop Combi (Thermo Electron Corp), 30 μL (final cell density=5,000 cells/well) of the working stock solution was dispensed into each well of white 384-well assay ready plates (Nunc™, 164610) containing 6 ng/mL doxycycline, to induce APOL1 expression, and compound. All compounds were plated in a duplicate 8-point dilution series that consisted of 3-fold stepwise dilutions (0.5% DMSO final). Assay plates were incubated (humidified, 37° C. with 5% CO2) for 17 hours. After the incubation, the plates were equilibrated at room temperature for 1 hour. Next, 15 μl of CellTiter-Glo® reagent (Promega, G7570) was added to each well using a MultiDrop Combi. Plates were placed on an orbital shaker (500 rpm) for 5 minutes to induce cell lysis and then incubated at room temperature for 10 minutes. Luminescence was measured on an Envision plate reader. Collaborative Drug Discovery software was utilized for graphing data. Plots were generated using a four parameter logistic curve fit.
Table B2 below provides the results from this experiment. Unless otherwise specified, EC50 values are reported as the geometric mean of at least 2 assay runs on separate days. Each run represents the average of a technical replicate, where each compound was assayed twice in the same plate. A superscript t symbol indicates a value from the average of a technical replicate from a single assay run, where each compound was assayed twice in the same plate. Compounds in Table B2 are referred to by the corresponding Compound Number in Table 1, which is also referred to in the synthetic examples. When one or more of the numbered compounds are identified by stereochemistry (for example, (R)- or (S)-), the specific stereoisomer for which data is provided in Table B2 may be identified by the elution order of such compound as described in the synthetic examples. To illustrate, Compound 2 is the first-eluting enantiomer of step 4 of Example 1 and Compound 3 is the second-eluting enantiomer of step 4 of Example 1. Further, by way of illustration, Compound 27 is the first-eluting enantiomeric mixture in step 4 of Example 7 and Compound 28 is the second-eluting enantiomeric mixture in step 4 of Example 7. Then, Compound 27 is separated into Compound 29 (the first-eluting enantiomer) and Compound 30 (the second-eluting enantiomer) in Example 8, and Compound 28 is separated into Compound 31 (the first-eluting enantiomer) and Compound 32 (the second-eluting enantiomer) in Example 8. Absolute stereochemistry of such compounds may be identified by methods known in the art.
Rescue EC50 values reported in Table B2 below represent the half-maximal effective concentration for reversal of cell death caused by overexpression of APOL1.

| Compound | AC50 (APOL1 G2 [1]) [nM] | EC50 (APOL1 G2 [2]) [nM] |
| --- | --- | --- |
| C[C@@H]1CN(CCc2cccc(C#N)c2)C[C@H]1COc1ccc(S(C)(=O)=O)c(C#N)c1 [Compound 86, 5-{[(3S,4S)-1-[2-(3-cyanophenyl)ethyl]-4-methylpyrrolidin-3-yl]methoxy}-2-methanesulfonylbenzonitrile] | 117 | 20.4 |
| CS(=O)(=O)C1(c2ccc(OC[C@@H]3CN(CCc4cc(Cl)cc(C#N)c4)CCN3)cc2)CC1 [Compound 110, 3-chloro-5-{2-[(3S)-3-{[4-(1-methanesulfonylcyclopropyl)phenoxy]methyl}piperazin-1-yl]ethyl}benzonitrile] | 140 | 93.2 |
| C[C@@H]1C[C@H](COc2ccc(S(=O)(=O)CCS(C)(=O)=O)cc2)CN1C1CCc2ccc(Cl)cc2C1 (stereo partly drawn) [Compound 49, (2R,4S)-1-[7-chloro-1,2,3,4-tetrahydronaphthalen-2-yl]-4-{[4-(2-methanesulfonylethanesulfonyl)phenoxy]methyl}-2-methylpyrrolidine] | 558 | 193 |
| C[C@@H]1C[C@H](COc2ccc(S(C)(=O)=O)nc2)CN1CCc1cc(Cl)cc(C#N)c1 [Compound 65, 3-chloro-5-{2-[(2R,4S)-4-{[(6-methanesulfonylpyridin-3-yl)oxy]methyl}-2-methylpyrrolidin-1-yl]ethyl}benzonitrile] | 346 | 49.8 |
| CC(C(O)c1cc(Cl)cc(C#N)c1)N1C[C@@H](COc2ccc(S(C)(=O)=O)cc2)C[C@H]1C (single isomer, unassigned) [Compound 97, 3-chloro-5-[(1S,2S or 1R,2R or 1R,2S or 1S,2R)-1-hydroxy-2-[(2R,4S)-4-[(4-methanesulfonylphenoxy)methyl]-2-methylpyrrolidin-1-yl]propyl]benzonitrile] | 813 | 2100 |
| C[C@@H]1CN(C2CCc3ccc(Cl)cc3C2)C[C@H]1COc1ccc(S(C)(=O)=O)cc1 (single isomer, unassigned) [Compound 15, (3S,4S)-1-[(2S or 2R)-7-chloro-1,2,3,4-tetrahydronaphthalen-2-yl]-3-[(4-methanesulfonylphenoxy)methyl]-4-methylpyrrolidine] | 1750 | 1830 |
| C[C@@H]1C[C@H](COc2ccc(S(C)(=O)=O)cc2)CN1CC(CO)c1cc(Cl)cc(C#N)c1 (single isomer, unassigned) [Compound 130, 3-chloro-5-[(2S or 2R)-1-hydroxy-3-[(2R,4S)-4-[(4-methanesulfonylphenoxy)methyl]-2-methylpyrrolidin-1-yl]propan-2-yl]benzonitrile] | 1940 | 303 |
| C[C@@H]1C[C@H](COc2ccc(S(=O)(=O)CCS(C)(=O)=O)cc2)CN1C1CCc2c(C#N)cc(Cl)cc2C1 (single isomer, unassigned) [Compound 47, (6S or 6R)-3-chloro-6-[(2R,4S)-4-{[4-(2-methanesulfonylethanesulfonyl)phenoxy]methyl}-2-methylpyrrolidin-1-yl]-5,6,7,8-tetrahydronaphthalene-1-carbonitrile] | 926 | > 3340 |
| C[C@@H]1CN(C(CO)Cc2cccc(Cl)c2)C[C@H]1COc1ccc(S(C)(=O)=O)cc1 (stereo partly drawn) [Compound 115, 3-(3-chlorophenyl)-2-[(3S,4S)-3-[(4-methanesulfonylphenoxy)methyl]-4-methylpyrrolidin-1-yl]propan-1-ol] | 470 | 1830 |
| C[C@@H]1C[C@H](COc2ccc(S(=O)(=O)CCCS(C)(=O)=O)cc2)CN1C1CCc2ccc(C#N)cc2C1 (single isomer, unassigned) [Compound 34, (7R or 7S)-7-[(2R,4S)-4-{[4-(3-methanesulfonylpropanesulfonyl)phenoxy]methyl}-2-methylpyrrolidin-1-yl]-5,6,7,8-tetrahydronaphthalene-2-carbonitrile] | 951 | 86.9 |
| C[C@@H]1C[C@H](COc2ccc(S(C)(=O)=O)cc2)CN1C1CCc2c(Cl)cccc2C1 (stereo partly drawn) [Compound 88, (2R,4S)-1-(5-chloro-1,2,3,4-tetrahydronaphthalen-2-yl)-4-[(4-methanesulfonylphenoxy)methyl]-2-methylpyrrolidine] | 843 | 215 |
